According to patent US8959984B2, “Proteome-wide quantification of small molecule binding to cellular target proteins” (priority 2007, dated 2015):

Columns and labels:
Assay in all cases: binding to VI16742 beads (HeLa lysate, SILAC MS)
CDK4 (IPI00007811) = target: T1, CDK4 (IPI00007811) (Homo sapiens, UniProt P11802)
T1 construct: endogenous in cells; host or cells: HeLa S3
Description: (§1) In an alternative implementation of the chemical proteomic approach according to the invention, the broadly-selective pyrido[2,3-d]pyrimidine-based kinase inhibitor VI16742 has been used for affinity capture (FIG. 10a). […] As shown by gene ontology analysis, the corresponding molecular functions were highly over-represented in proteins specifically retained by the inhibitor resin (FIG. 10b).

CSK (IPI00013212) = target: T2, CSK (IPI00013212) (Homo sapiens, UniProt P41240)
T2 construct: endogenous in cells; host or cells: HeLa S3 cell lysate
T2 sequence (P41240 whole entry): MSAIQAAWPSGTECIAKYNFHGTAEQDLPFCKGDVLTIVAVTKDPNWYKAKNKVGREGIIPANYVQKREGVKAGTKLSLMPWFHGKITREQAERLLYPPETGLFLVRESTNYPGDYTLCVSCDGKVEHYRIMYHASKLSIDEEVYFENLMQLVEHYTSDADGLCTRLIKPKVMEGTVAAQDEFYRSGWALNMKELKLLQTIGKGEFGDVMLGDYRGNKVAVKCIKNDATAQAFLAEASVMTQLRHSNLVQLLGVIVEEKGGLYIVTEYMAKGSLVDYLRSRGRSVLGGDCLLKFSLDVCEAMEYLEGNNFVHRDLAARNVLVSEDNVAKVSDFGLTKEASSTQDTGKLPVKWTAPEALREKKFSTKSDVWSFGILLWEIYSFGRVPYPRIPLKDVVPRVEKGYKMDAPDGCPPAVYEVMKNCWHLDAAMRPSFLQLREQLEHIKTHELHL
Description: as §1

DAPK2 (IPI00033388) = target: T3, DAPK2 (IPI00033388) (Homo sapiens, UniProt Q9UIK4)
T3 construct: endogenous in cells; host or cells: HeLa S3
T3 sequence (Q9UIK4 whole entry): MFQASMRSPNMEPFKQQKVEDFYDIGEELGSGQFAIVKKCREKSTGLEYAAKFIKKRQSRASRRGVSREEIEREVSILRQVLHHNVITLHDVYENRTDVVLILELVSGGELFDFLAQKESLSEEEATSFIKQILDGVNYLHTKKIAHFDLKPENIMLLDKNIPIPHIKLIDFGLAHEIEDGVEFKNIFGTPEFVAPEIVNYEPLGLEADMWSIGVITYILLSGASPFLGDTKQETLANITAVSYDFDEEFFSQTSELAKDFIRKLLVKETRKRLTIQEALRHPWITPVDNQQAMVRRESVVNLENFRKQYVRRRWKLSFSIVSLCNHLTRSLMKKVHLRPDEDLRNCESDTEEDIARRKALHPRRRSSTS
Description: as §1

DCI (IPI00300567) = target: T4, DCI (IPI00300567) (Homo sapiens, UniProt P42126)
T4 construct: endogenous in cells; host or cells: HeLa S3
T4 sequence (P42126 42-302): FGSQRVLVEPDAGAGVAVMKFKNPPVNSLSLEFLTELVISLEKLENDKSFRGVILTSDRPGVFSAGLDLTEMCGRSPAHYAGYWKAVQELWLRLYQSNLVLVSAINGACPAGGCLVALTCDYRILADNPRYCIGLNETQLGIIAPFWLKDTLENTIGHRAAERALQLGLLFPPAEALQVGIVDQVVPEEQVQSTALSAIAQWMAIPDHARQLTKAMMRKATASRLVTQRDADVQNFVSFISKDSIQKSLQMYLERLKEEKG
Description: as §1

MASTL (IPI00074258) = target: T5, MASTL (IPI00074258) (Homo sapiens, UniProt Q96GX5)
T5 construct: endogenous in cells; host or cells: HeLa S3
T5 sequence (Q96GX5 1-879): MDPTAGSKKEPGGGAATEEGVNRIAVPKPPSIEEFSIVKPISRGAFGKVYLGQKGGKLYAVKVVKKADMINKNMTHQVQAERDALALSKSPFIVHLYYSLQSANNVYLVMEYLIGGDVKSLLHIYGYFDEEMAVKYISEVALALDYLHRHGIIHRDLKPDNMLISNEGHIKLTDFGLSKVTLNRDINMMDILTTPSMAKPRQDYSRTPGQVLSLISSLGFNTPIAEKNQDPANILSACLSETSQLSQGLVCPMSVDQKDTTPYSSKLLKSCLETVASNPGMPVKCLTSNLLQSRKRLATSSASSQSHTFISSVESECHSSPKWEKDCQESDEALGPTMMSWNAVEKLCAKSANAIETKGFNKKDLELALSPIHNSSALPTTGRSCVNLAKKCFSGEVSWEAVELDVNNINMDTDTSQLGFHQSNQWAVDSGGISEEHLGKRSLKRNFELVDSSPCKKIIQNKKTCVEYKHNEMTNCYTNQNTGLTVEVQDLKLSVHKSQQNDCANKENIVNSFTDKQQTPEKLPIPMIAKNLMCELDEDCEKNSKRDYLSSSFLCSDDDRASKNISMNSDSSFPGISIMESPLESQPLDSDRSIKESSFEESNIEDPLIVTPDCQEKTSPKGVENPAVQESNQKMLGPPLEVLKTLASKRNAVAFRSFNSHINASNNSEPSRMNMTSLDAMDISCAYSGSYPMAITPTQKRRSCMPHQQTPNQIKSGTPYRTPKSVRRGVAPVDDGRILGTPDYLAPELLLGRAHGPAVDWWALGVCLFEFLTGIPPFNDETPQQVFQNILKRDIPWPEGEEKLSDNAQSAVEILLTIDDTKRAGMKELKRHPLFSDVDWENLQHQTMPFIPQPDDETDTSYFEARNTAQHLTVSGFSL
Description: as §1

MET (IPI00294528) = target: T6, MET (IPI00294528) (Homo sapiens, UniProt P08581)
T6 construct: endogenous in cells; host or cells: HeLa S3 cell lysate
Description: as §1

[1] = target: T7, MSK1 (RPS6KA5, IPI00335101) (Homo sapiens, UniProt O75582)
T7 construct: endogenous in cells; host or cells: HeLa S3
T7 sequence (O75582 whole entry): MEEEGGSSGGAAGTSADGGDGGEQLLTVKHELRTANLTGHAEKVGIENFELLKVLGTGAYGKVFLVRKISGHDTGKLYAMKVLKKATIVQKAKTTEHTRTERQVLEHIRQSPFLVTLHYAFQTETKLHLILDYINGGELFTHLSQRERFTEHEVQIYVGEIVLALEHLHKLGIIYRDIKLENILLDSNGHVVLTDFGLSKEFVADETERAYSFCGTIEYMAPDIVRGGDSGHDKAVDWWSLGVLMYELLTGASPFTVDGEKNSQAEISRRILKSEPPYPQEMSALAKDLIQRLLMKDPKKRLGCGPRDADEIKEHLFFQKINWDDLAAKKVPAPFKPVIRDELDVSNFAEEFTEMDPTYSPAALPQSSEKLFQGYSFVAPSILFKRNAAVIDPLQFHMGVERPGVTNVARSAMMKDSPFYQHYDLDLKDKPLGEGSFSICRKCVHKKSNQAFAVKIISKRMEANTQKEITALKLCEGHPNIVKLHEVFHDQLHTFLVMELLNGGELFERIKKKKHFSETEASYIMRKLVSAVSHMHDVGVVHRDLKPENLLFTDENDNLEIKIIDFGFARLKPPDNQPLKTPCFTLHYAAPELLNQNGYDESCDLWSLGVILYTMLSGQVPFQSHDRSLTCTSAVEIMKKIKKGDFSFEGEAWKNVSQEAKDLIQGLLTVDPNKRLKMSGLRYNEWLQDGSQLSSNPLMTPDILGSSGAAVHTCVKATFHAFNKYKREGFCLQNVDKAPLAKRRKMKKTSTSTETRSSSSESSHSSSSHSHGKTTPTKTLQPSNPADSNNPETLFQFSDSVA
Description: as §1

[2] = target: T8, OSR1 (OXSR1, IPI00010080) (Homo sapiens, UniProt O95747)
T8 construct: endogenous in cells; host or cells: HeLa S3
T8 sequence (O95747 whole entry): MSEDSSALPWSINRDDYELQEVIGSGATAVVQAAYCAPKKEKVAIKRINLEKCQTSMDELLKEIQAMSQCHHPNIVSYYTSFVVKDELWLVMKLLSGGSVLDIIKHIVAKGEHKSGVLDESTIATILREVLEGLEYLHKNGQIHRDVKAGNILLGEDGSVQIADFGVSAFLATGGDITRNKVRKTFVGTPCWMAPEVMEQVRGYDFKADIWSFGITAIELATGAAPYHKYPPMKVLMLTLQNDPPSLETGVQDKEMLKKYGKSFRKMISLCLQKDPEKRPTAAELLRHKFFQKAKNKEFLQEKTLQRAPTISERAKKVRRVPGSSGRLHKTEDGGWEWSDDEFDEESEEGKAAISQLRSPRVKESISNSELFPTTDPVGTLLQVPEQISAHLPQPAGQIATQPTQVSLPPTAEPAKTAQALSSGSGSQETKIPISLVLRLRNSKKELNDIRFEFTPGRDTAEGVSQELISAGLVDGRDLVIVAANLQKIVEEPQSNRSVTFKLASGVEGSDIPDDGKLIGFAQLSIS
Description: as §1

[3] = target: T9, PHKg2 (PHKG2, IPI00012891) (Homo sapiens, UniProt P15735)
T9 construct: endogenous in cells; host or cells: HeLa S3
T9 sequence (P15735 1-406): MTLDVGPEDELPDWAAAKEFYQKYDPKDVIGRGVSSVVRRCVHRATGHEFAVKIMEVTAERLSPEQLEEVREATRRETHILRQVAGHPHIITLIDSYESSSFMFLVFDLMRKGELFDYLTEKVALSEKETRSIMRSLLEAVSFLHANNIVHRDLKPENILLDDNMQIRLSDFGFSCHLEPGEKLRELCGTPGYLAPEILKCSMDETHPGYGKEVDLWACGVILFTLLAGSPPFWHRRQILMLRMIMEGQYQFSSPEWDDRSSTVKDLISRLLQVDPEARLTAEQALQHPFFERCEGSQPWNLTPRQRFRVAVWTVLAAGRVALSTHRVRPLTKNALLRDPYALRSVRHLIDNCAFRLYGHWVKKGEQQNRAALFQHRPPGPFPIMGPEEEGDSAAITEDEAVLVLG
Description: as §1

PIK3C2A (IPI00002580) = target: T10, PIK3C2A (IPI00002580) (Homo sapiens, UniProt O00443)
T10 construct: endogenous in cells; host or cells: HeLa S3
T10 sequence (O00443 whole entry): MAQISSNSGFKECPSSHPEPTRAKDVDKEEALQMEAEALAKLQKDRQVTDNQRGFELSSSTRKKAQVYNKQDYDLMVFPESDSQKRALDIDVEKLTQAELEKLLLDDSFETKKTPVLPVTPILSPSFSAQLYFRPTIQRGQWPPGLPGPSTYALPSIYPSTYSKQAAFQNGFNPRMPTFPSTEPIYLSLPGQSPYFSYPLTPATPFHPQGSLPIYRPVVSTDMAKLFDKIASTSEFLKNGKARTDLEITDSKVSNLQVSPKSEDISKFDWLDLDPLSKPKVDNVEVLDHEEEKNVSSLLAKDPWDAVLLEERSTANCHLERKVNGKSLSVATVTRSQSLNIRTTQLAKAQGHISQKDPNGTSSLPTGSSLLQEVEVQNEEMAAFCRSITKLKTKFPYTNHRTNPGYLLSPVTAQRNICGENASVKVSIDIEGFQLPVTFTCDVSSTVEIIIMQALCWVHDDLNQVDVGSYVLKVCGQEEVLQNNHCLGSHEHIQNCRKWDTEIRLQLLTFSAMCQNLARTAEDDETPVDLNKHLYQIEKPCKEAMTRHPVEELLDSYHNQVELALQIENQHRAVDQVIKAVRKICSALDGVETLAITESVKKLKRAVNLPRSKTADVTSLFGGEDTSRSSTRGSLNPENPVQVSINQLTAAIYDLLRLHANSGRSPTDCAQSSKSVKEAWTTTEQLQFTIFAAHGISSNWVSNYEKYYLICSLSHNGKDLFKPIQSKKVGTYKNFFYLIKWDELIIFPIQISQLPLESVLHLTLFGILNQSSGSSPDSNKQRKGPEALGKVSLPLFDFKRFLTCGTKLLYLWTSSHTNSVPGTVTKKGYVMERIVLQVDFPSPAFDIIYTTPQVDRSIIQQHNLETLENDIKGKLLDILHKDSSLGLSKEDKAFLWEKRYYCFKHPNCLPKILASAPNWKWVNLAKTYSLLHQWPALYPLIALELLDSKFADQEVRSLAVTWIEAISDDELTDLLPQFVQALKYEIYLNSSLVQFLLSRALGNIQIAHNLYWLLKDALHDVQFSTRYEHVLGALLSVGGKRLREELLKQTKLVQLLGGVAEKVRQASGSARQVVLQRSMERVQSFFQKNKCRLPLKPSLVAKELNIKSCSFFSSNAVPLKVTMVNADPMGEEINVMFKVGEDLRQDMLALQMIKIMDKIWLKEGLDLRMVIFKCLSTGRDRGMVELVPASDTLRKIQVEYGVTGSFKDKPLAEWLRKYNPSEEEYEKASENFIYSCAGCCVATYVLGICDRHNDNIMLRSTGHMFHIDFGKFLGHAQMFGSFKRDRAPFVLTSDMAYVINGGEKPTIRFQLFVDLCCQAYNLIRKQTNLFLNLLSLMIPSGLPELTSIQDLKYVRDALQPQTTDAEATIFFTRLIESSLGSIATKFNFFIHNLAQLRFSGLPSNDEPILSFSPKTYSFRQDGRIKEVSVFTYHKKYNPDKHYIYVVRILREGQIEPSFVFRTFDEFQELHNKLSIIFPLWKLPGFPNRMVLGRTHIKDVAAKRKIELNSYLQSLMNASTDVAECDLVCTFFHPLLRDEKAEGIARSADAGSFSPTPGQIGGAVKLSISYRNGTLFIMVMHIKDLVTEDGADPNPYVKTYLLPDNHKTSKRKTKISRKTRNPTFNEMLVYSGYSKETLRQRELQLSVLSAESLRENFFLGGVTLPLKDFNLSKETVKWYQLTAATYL
Description: as §1

[4] = control beads vs first incubation

T1 sequence (P11802 whole entry): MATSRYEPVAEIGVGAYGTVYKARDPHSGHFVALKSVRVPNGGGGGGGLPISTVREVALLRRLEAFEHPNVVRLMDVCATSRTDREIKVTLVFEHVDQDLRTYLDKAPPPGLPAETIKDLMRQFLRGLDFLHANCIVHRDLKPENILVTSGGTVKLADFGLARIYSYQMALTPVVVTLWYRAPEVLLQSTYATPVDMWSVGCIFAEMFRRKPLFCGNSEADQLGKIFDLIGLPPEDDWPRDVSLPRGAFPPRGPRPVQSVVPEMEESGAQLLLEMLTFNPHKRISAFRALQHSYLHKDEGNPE

CC(C)n1c(=O)ccc2cnc(Nc3ccc(OCCN)cc3)nc21 [V16742]
r (3 MG/1 MG LYSATE) (CDK4 (IPI00007811); 3 mg vs 1 mg lysate): 1.77
r (5 h/2.5 h INC. TIME) (CDK4 (IPI00007811); 5 h vs 2.5 h incubation time): 1.03
rAVERAGE (CTRL/1 INC) (CDK4 (IPI00007811); [4]): 0.07
Ki (CDK4 (IPI00007811); immobilized VI16742): 511 µM
rAVERAGE (2 INC/1 INC) (CDK4 (IPI00007811); second vs first incubation): 0.91
r (5 h/2.5 h INC. TIME) (CSK (IPI00013212); 5 h vs 2.5 h incubation time): 1.51
rAVERAGE (CTRL/1 INC) (CSK (IPI00013212); [4]): 0.02
Ki (CSK (IPI00013212); immobilized VI16742): 79.5 µM
rAVERAGE (2 INC/1 INC) (CSK (IPI00013212); second vs first incubation): 0.60
rAVERAGE (CTRL/1 INC) (DAPK2 (IPI00033388); [4]): 0.11
Ki (DAPK2 (IPI00033388); immobilized VI16742): 171 µM
rAVERAGE (2 INC/1 INC) (DAPK2 (IPI00033388); second vs first incubation): 0.77
r (3 MG/1 MG LYSATE) (DCI (IPI00300567); 3 mg vs 1 mg lysate): 3.25
r (5 h/2.5 h INC. TIME) (DCI (IPI00300567); 5 h vs 2.5 h incubation time): 1.68
rAVERAGE (CTRL/1 INC) (DCI (IPI00300567); [4]): 0.04
Ki (DCI (IPI00300567); immobilized VI16742): 236 µM
rAVERAGE (2 INC/1 INC) (DCI (IPI00300567); second vs first incubation): 0.82
rAVERAGE (CTRL/1 INC) (MASTL (IPI00074258); [4]): 0.09
Ki (MASTL (IPI00074258); immobilized VI16742): 109 µM
rAVERAGE (2 INC/1 INC) (MASTL (IPI00074258); second vs first incubation): 0.68
rAVERAGE (CTRL/1 INC) (MET (IPI00294528); [4]): 0.08
Ki (MET (IPI00294528); immobilized VI16742): 94.8 µM
rAVERAGE (2 INC/1 INC) (MET (IPI00294528); second vs first incubation): 0.65
rAVERAGE (CTRL/1 INC) [1, 4]: 0.03
Ki ([1]; immobilized VI16742): 217 µM
rAVERAGE (2 INC/1 INC) ([1]; second vs first incubation): 0.81
rAVERAGE (CTRL/1 INC) [2, 4]: 0.05
Ki ([2]; immobilized VI16742): 207 µM
rAVERAGE (2 INC/1 INC) ([2]; second vs first incubation): 0.80
r (3 MG/1 MG LYSATE) ([3]; 3 mg vs 1 mg lysate): 2.14
r (5 h/2.5 h INC. TIME) ([3]; 5 h vs 2.5 h incubation time): 1.33
rAVERAGE (CTRL/1 INC) [3, 4]: 0.10
Ki ([3]; immobilized VI16742): 296 µM
rAVERAGE (2 INC/1 INC) ([3]; second vs first incubation): 0.85
rAVERAGE (CTRL/1 INC) (PIK3C2A (IPI00002580); [4]): 0.18
Ki (PIK3C2A (IPI00002580); immobilized VI16742): 104 µM
rAVERAGE (2 INC/1 INC) (PIK3C2A (IPI00002580); second vs first incubation): 0.67
